Assay results from patent publication US6818208B2, “Use of a flavonoid extract of ginkgo biloba substantially devoid of terpenes, in the dentibuccal field, and composition containing such extract” (Societe de Conseils de Recherches et d'Applications …, priority 1996, dated 2004).

Molecular target: T1, human leucocyte elastase (HLE) (Homo sapiens, UniProt P08246)
T1 sequence (P08246 30-267): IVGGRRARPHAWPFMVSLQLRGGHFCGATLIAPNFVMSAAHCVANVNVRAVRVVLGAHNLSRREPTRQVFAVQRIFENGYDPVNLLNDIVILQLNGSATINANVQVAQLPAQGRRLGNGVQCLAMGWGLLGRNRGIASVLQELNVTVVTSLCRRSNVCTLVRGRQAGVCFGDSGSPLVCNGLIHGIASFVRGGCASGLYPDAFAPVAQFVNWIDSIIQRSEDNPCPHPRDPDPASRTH
Test: Anti-elastasic activity ex vivo on frozen sections of human gums (elastic fibres remaining, morphometric quantification by image analysis)
Type: biochemical
Conditions: HLE + PMSF, HLE 10 μm/ml, two hours
Procedure: The purpose of this study is therefore to study the anti-elastasic activity of an extract as defined above, alone or in combination with ceramides. This activity is evaluated on sections of human gums.
The ceramides used, of vegetable origin, are obtained according to a process as described in Patent FR 2676936 incorporated by way of reference, a process which comprises exctraction from wheat, using a polar extraction solvent followed by recrystallization from an organic solvent. They are essentially composed of glucosylceramides and ceramides.
For this purpose, the elastic fibre network is subjected to human leucocyte elastase (HLE), with or without an anti-elastasic product. The elastic fibres remaining after enzymatic action are stained with (+) catechin.
Frozen sections of 8 μm are carried out from 5 samples obtained from biopsies of normal buccal mucosa, taken during dental extractions.
In a first stage, the concentration in human leucocyte elastase required for the destruction of elastic fibres is determined: leucocyte elastase is applied to the skin sections for two hours at ambient temperature and in a humid atmosphere; after fixing in acetone and dehydration in ethanol at […], the remaining elastic fibres are stained with (+) catechin. Total destruction of the elastic fibres is obtained in the presence of 10 μm/ml of human leucocyte elastase.
The anti-elastasic activity of the products is compared with that of (PMSF), a powerful elastase inhibitor.

## O=S(=O)(F)Cc1ccccc1 [PMSF]
Lower corium dermis
  % of elastic fibres remaining after treatment with human leucocyte elastase: 70%
Medium corium dermis
  % of elastic fibres remaining after treatment with human leucocyte elastase: 55%
Upper corium dermis
  % of elastic fibres remaining after treatment with human leucocyte elastase: 25%
